Test results from PubChem BioAssay (NCI).
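Each compound was tested at five concentrations against cells in 96-well plates for 48 hours. Definition used: TGI = concentration required for complete inhibition of growth.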

Tests used:
Experiment in all cases: NCI tumour cell line growth inhibition, 48 h
[1] = system: 786-0 renal
[2] = system: A549 NSCLC
[3] = system: ACHN renal
[4] = system: BT-549 breast
[5] = system: CAKI-1 renal
[6] = system: CCRF-CEM leukemia
[7] = system: COLO 205 colon
[8] = system: DU-145 prostate
[9] = system: EKVX NSCLC
[10] = system: HCC-2998 colon
[11] = system: HCT-116 colon
[12] = system: HCT-15 colon
[13] = system: HL-60(TB) leukemia
[14] = system: HOP-62 NSCLC
[15] = system: HS 578T breast
[16] = system: HT29 colon
[17] = system: IGROV1 ovarian
[18] = system: K-562 leukemia
[19] = system: KM12 colon
[20] = system: LOX IMVI melanoma
[21] = system: M14 melanoma
[22] = system: MALME-3M melanoma
[23] = system: MCF7 breast
[24] = system: MDA-MB-231 breast
[25] = system: MDA-N
[26] = system: MOLT-4 leukemia
[27] = system: NCI-H226 lung
[28] = system: NCI-H23 lung
[29] = system: NCI-H460 lung
[30] = system: NCI-H522 lung
[31] = system: NCI/ADR-RES ovarian
[32] = system: OVCAR-4 ovarian
[33] = system: OVCAR-5 ovarian
[34] = system: OVCAR-8 ovarian
[35] = system: PC-3 prostate
[36] = system: RPMI-8226 leukemia
[37] = system: RXF 393 renal
[38] = system: SF-268 CNS
[39] = system: SF-295 CNS
[40] = system: SF-539 CNS
[41] = system: SK-MEL-2 melanoma
[42] = system: SK-MEL-28 melanoma
[43] = system: SK-MEL-5 melanoma
[44] = system: SK-OV-3 ovarian
[45] = system: SN12C renal
[46] = system: SNB-19 CNS
[47] = system: SNB-75 CNS
[48] = system: SR leukemia
[49] = system: SW-620 colon
[50] = system: T-47D breast
[51] = system: TK-10 renal
[52] = system: U251 CNS
[53] = system: UACC-257 melanoma
[54] = system: UACC-62 melanoma
[55] = system: UO-31 renal
[56] = system: A498 renal
[57] = system: HOP-92 NSCLC
[58] = system: MDA-MB-435
[59] = system: OVCAR-3 ovarian

SMILES: COC(=O)C1CC2(CCC1=O)Cc1ccccc1C2=O (configuration not stated)
- TGI [1]: > 100 µM
- TGI [2]: > 100 µM
- TGI [3]: > 100 µM
- TGI [4]: > 100 µM
- TGI [5]: > 100 µM
- TGI [6]: > 100 µM
- TGI [7]: > 100 µM
- TGI [8]: > 100 µM
- TGI [9]: > 100 µM
- TGI [10]: > 100 µM
- TGI [11]: > 100 µM
- TGI [12]: > 100 µM
- TGI [13]: > 100 µM
- TGI [14]: > 100 µM
- TGI [15]: > 100 µM
- TGI [16]: > 100 µM
- TGI [17]: > 100 µM
- TGI [18]: > 100 µM
- TGI [19]: > 100 µM
- TGI [20]: > 100 µM
- TGI [21]: > 100 µM
- TGI [22]: > 100 µM
- TGI [23]: > 100 µM
- TGI [24]: > 100 µM
- TGI [25]: > 100 µM
- TGI [26]: > 100 µM
- TGI [27]: > 100 µM
- TGI [28]: > 100 µM
- TGI [29]: > 100 µM
- TGI [30]: > 100 µM
- TGI [31]: > 100 µM
- TGI [32]: > 100 µM
- TGI [33]: > 100 µM
- TGI [34]: > 100 µM
- TGI [35]: > 100 µM
- TGI [36]: > 100 µM
- TGI [37]: > 100 µM
- TGI [38]: > 100 µM
- TGI [39]: > 100 µM
- TGI [40]: > 100 µM
- TGI [41]: > 100 µM
- TGI [42]: > 100 µM
- TGI [43]: > 100 µM
- TGI [44]: > 100 µM
- TGI [45]: > 100 µM
- TGI [46]: > 100 µM
- TGI [47]: > 100 µM
- TGI [48]: > 100 µM
- TGI [49]: > 100 µM
- TGI [50]: > 100 µM
- TGI [51]: > 100 µM
- TGI [52]: > 100 µM
- TGI [53]: > 100 µM
- TGI [54]: > 100 µM
- TGI [55]: > 100 µM

SMILES: CNC(=O)OCc1c(COC(=O)NC)c(C)n(-c2ccc(Br)cc2)c1C
- TGI [1]: 27.8 µM
- TGI [56]: 3.21 µM
- TGI [2]: 38.1 µM
- TGI [3]: 12.7 µM
- TGI [5]: > 100 µM
- TGI [6]: 48.2 µM
- TGI [7]: 27.5 µM
- TGI [8]: 36.2 µM
- TGI [9]: > 100 µM
- TGI [10]: 32.2 µM
- TGI [11]: 25.8 µM
- TGI [12]: 29.1 µM
- TGI [13]: 31.9 µM
- TGI [14]: 29.1 µM
- TGI [57]: 31 µM
- TGI [15]: 33.5 µM
- TGI [16]: 22.4 µM
- TGI [17]: 19.1 µM
- TGI [18]: 95.1 µM
- TGI [19]: 30.8 µM
- TGI [20]: 23.9 µM
- TGI [21]: 32.5 µM
- TGI [22]: 36.3 µM
- TGI [23]: 25.9 µM
- TGI [24]: 30.5 µM
- TGI [58]: 34 µM
- TGI [25]: 32 µM
- TGI [26]: > 100 µM
- TGI [27]: 4.59 µM
- TGI [28]: 35.4 µM
- TGI [29]: 24.1 µM
- TGI [30]: 25.9 µM
- TGI [31]: 34.9 µM
- TGI [59]: 30.4 µM
- TGI [33]: 77.2 µM
- TGI [34]: 24.8 µM
- TGI [35]: 65.8 µM
- TGI [36]: 31.6 µM
- TGI [37]: 19.8 µM
- TGI [38]: 34.5 µM
- TGI [39]: 31.9 µM
- TGI [40]: 30.3 µM
- TGI [41]: 31 µM
- TGI [42]: 35.2 µM
- TGI [43]: 28.1 µM
- TGI [44]: 34.2 µM
- TGI [45]: 32.8 µM
- TGI [46]: 44.3 µM
- TGI [47]: 19.1 µM
- TGI [48]: > 100 µM
- TGI [49]: 27.3 µM
- TGI [50]: 54.9 µM
- TGI [51]: 51.5 µM
- TGI [52]: 25.5 µM
- TGI [53]: 32.3 µM
- TGI [54]: 18.5 µM
- TGI [55]: 19.5 µM
